Reference: patent US12516130B2, “Single-domain antibody for targeting prostate specific membrane antigen (PSMA)” (NATIONAL INSTITUTE FOR BIOTECHNOLOGY IN THE NEGEV LTD., priority 2019, dated 2026)

Columns and labels:
PC3-PIP xenografts [1] = test: In vivo tumor growth inhibition; design: species or system athymic nude mice; details: fewer than in saline group
Procedure: PC3-PIP xenografts were grown in athymic nude mice, as described in the in vivo optical imaging section, above. When the average tumor size reached 200 mm^3, the mice were divided into three groups (controlled for average tumor size), each subjected to a different treatment: 150 μl saline (n=7), 2 mg/kg DOX (n=8), or 1.4 mg/kg (˜40 μg) NB7cysDOX (n=8). The treatment was administered to the tail vein twice a week for three consecutive weeks. At each sample point, the tumor volume was calculated (V=0.5×L×W×H), as previously described (Tomayko and Reynolds, 1989). A mouse was euthanized when tumor volume reached 1,500 mm^3 or when its physical condition deteriorated, according to the guidelines of the Committee for the Ethical Care and Use of Animals in Research at BGU. The estimated tumor volume prior to euthanasia and the rate-based T/C were determined as described previously (Aston et al., 2017).

PC3-PIP cells [2] = test: Mitochondrial potential assay (TMRE); format: cell-based; details: 24 h, 1.5 μg/ml DOX or equivalent molar amount
Procedure: PC3-PIP cells (2×10^4) were seeded on 96-well plates. […] After 24 h, tetramethylrhodamine ethyl ester (TMRE; Abcam, UK) was added according to the protocol provided by the manufacturer. Fluorescence intensity was measured at an excitation wavelength of 549 nm and an emission wavelength of 575 nm.

PC3-PIP cells [3] = test: Cell viability assay (propidium iodide, FACS); format: cell-based; details: 24 h, 1.5 μg/ml DOX or equivalent molar amount
Procedure: PC3-PIP cells were grown and treated as described in the cell quantification assay section, above. The cells were harvested, incubated with 0.5 μg propidium iodide (PI; Biolegend), and their fluorescence intensity was measured in a BD C6 flow cytometer.

PC3-PIP cells [4] = test: Cell quantification assay; format: cell-based; details: 24 h, 1.5 μg/ml DOX or equivalent molar amount
Procedure: PC3-PIP cells (5×10^4) were seeded in 24-well plates. […] After 24 h of treatment, the number of cells in each well was counted using the Countess II automated cell counter (Invitrogen).

PC3-PIP xenografts [5] = test: Histology of treated tumors (IF, H&E, TUNEL); details: 4 d after treatment termination
Text: Four days following the final dose of each treatment in the in vivo tumor growth inhibition assay, the mice were euthanized, and their xenografts were fixated in 4% formaldehyde and embedded in paraffin. Tumor sections (5 μm thickness) were subjected to hematoxylin and eosin (H&E) staining, TUNEL assay, and immunofluorescence (IF), as previously described (Pittala et al., 2018, Fischer et al., 2008). […] 4′,6-diamidino-2-phenylindole (DAPI) was used for nuclei staining. […] TUNEL, PI, and IF were visualized in a confocal microscope.

[6] = tested on: PC3-PIP and PC3-flu cells; test: Confocal imaging of NB7cys, DOX and NB7cysDOX internalization; format: cell-based; details: 15 min, 1.5 μg/ml DOX or molar equivalent

Which “mice reaching maximal tumor size, DOX versus NB7cysDOX groups” value (PC3-PIP xenografts [1]) does the source give for `COc1cccc2c1C(=O)c1c(O)c3c(c(O)c1C2=O)C[C@@](O)(C(=O)CO)C[C@@H]3O[C@H]1C[C@H](N)[C@H](O)[C@H](C)O1` [DOX, doxorubicin] here?
The value was “not significantly different from each other”.

And the “mitochondrial membrane potential (TMRE signal)” value (PC3-PIP cells [2])?
The value was “similarly reduced the mitochondrial membrane potential”.

And the “PI signal (late apoptosis and necrosis)” value (PC3-PIP cells [3])?
The value was “considerably increased the signal”.

And the “number of cells versus untreated cells” value (PC3-PIP cells [4])?
The value was “significantly reduced the number of cells in the well”.

What about the “H&E staining of tumors” value (PC3-PIP xenografts [5]) of the same molecule?
The value was “necrotic, fewer, and with large vacancies between cells”.

What about the “TUNEL assay of tumors” value (PC3-PIP xenografts [5]) of the same molecule?
Its value is “significant apoptosis”.

And the “cellular distribution in PC3-PIP and PC3-flu cells” value [6]?
Its value is “diffused spontaneously into both PC3-PIP and PC3-flu cells”.
